Test results reported in PubChem BioAssay (NCI).
Several values for one entry are separate records, joined by “and”; a condition that tells them apart may be missing. Identical values can stand only once.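 Step 1: Grow cells in 96-well plates. Step 2: Expose to compound for 48 hours at 5 concentrations. Step 3: Interpolate endpoints linearly; if unreached, use highest concentration. At the GI50, growth is halved. TGI: total growth inhibition.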

Assays:
Experiment in all cases: DTP human tumour cell line panel, 48 h
BT-549 breast = test system: BT-549 breast
CAKI-1 renal = test system: CAKI-1 renal
CCRF-CEM leukemia = test system: CCRF-CEM leukemia
HCC-2998 colon = test system: HCC-2998 colon
HS 578T breast = test system: HS 578T breast
K-562 leukemia = test system: K-562 leukemia
MCF7 breast = test system: MCF7 breast
MDA-N = test system: MDA-N
NCI-H460 lung = test system: NCI-H460 lung
OVCAR-5 ovarian = test system: OVCAR-5 ovarian
PC-3 prostate = test system: PC-3 prostate
SK-MEL-5 melanoma = test system: SK-MEL-5 melanoma
SNB-75 CNS = test system: SNB-75 CNS
U251 CNS = test system: U251 CNS
UACC-257 melanoma = test system: UACC-257 melanoma
UO-31 renal = test system: UO-31 renal

Row | SMILES | TGI (BT-549 breast) [µM] | TGI (CAKI-1 renal) [µM] | TGI (CCRF-CEM leukemia) [µM] | TGI (HCC-2998 colon) [µM] | TGI (HS 578T breast) [µM] | TGI (K-562 leukemia) [µM] | TGI (MCF7 breast) [µM] | TGI (MDA-N) [µM] | TGI (NCI-H460 lung) [µM] | TGI (OVCAR-5 ovarian) [µM] | TGI (PC-3 prostate) [µM] | TGI (SK-MEL-5 melanoma) [µM] | TGI (SNB-75 CNS) [µM] | TGI (U251 CNS) [µM] | TGI (UACC-257 melanoma) [µM] | TGI (UO-31 renal) [µM] | GI50 (K-562 leukemia) [µM] | GI50 (PC-3 prostate) | GI50 (SK-MEL-5 melanoma) | GI50 (SNB-75 CNS)
1 | CC(=O)C(N1CCCCC1)C(O)(C(F)(F)F)C(F)(F)F (stereo not drawn) | > 100 | > 100 | > 100 | > 100 | > 100 | > 100 | > 100 | > 100 | > 100 | > 100 | > 100 | > 100 | > 100 | > 100 | > 100 | > 100 | – | – | – | –
2 | O=[N+]([O-])c1cc(Br)cc2cc(Cl)cnc12 | > 100 | > 100 | > 100 | > 100 | > 100 | > 100 | > 100 | > 100 | > 100 | > 100 | > 100 | > 100 | 92 | > 100 | > 100 | > 100 | – | – | – | –
3 | Cc1sc2c(c1C)C(=O)c1cccn1-2 | > 100 | > 100 | > 100 | > 100 | > 100 | > 100 | > 100 | > 100 | > 100 | > 100 | > 100 | > 100 | > 100 | > 100 | > 100 | > 100 | – | – | – | –
4 | COc1ccccc1C1C2=C(COC2=O)Oc2cc3c(cc21)OCO3 (stereo not drawn) | > 100 | > 100 | 16.8 | > 37.6 | 13.3 | > 100 | > 89.9 | 0.763 | > 100 | > 92.4 | > 100 | > 100 | 21.9 | > 100 | > 100 | > 33.5 | – | – | – | –
5 | CC(=O)N1C(C(=O)NN2CCOCC2)CSC1c1ccccc1 (stereo not drawn) | > 100 | > 100 | > 100 | > 100 | > 100 | > 100 | > 100 | > 100 | > 100 | > 100 | > 100 | > 100 | > 100 | > 100 | > 100 | > 100 | – | – | – | –
6 | Clc1ccc(Nc2ncco2)cc1Cl | > 10 | > 10 | > 10 | > 10 | > 10 | > 10 | > 10 | > 10 | > 10 | > 10 | > 10 | > 10 | > 10 | > 10 | > 10 | > 10 | – | – | – | –
7 | O=c1oc2ccc([N+](=O)[O-])cc2nc1/C=C(\O)c1ccccc1 | > 100 | > 100 | > 100 | > 100 | > 100 | > 100 | > 100 | > 100 | > 100 | > 100 | > 100 | > 100 | > 100 | > 100 | > 100 | > 100 | – | – | – | –
8 | COc1ccc2c(c1)CC[C@@H]1[C@@H]2CC[C@]2(C)/C(=N/OCCN3CCCC3)CC[C@@H]12 | 22.4 | 3.42 | 3.67 | 3.49 | 7.29 | 2.58 | 8.92 | 3.98 | 3.08 | 10.1 | 13.5 | 3.41 | 9.49 | 10.4 | 3.81 | 7.54 | – | – | – | –
9 | CCOC(=O)c1c(N2CCCC2)[nH]c(=O)c(C(c2c(O)c(C(=O)OCC)c(N3CCCC3)[nH]c2=O)C(C)C)c1O | > 100 | > 100 | > 100 | > 100 | > 100 | > 100 | > 100 | > 100 | > 100 | > 100 | > 100 | > 100 | 96.5 | > 100 | > 100 | > 100 | – | – | – | –
10 | Cc1cccc2c(N)c3cccc(C(=O)NCC[N+](C)(C)Cc4ccc([N+](=O)[O-])n4C)c3nc12 | > 71.3 | > 51.2 | 41.8 | 55.8 | 41 | > 31.6 | > 62.5 | > 81.2 | > 46.6 | > 70.8 | > 75.2 | 59 | 43.2 | 63.4 | > 80.9 | 74.7 | – | – | – | –
11 | c1ccc(CN2CCC(=NN3CCCCC3)CC2)cc1 | > 100 | > 100 | > 100 | > 100 | > 100 | > 100 | > 100 | > 100 | > 100 | > 100 | > 100 | > 100 | > 100 | > 100 | > 100 | > 100 | – | – | – | –
12 | c1ccc(-c2csc3c2-n2cccc2C3N2CCCC2)cc1 (stereo not drawn) | 34.4 | > 100 | > 100 | > 100 | > 100 | > 100 | > 100 | > 100 | > 100 | > 100 | > 100 | 22.6 | > 100 | > 100 | 39.9 | > 100 | – | – | – | –
13 | O=C(O)c1cc(N=Nc2ccc([N+](=O)[O-])cc2)ccc1O | > 100 | > 100 | > 100 | 44.7 | > 100 | > 100 | 87.1 | > 100 | 83 | > 100 | > 100 | > 100 | > 100 | 68.4 | 74.7 | 67.6 | – | – | – | –
14 | COc1ccc(/C=C2/N=C(N/N=C\C(O)C(O)C(O)CO)NC2=O)cc1 (stereo not drawn) | > 100 | > 100 | > 100 | > 100 | > 100 | > 100 | > 100 | > 100 | > 100 | > 100 | > 100 | > 100 | > 100 | > 100 | > 100 | > 100 | 33 | > 100 µM and 39.3 µM | > 100 µM and 41.6 µM | > 100 µM and 41.4 µM
